Patent US4287189A, “O,S-Dialkyl O-oxysulfonylphenyl phosphorothiolates and phosphorodithioates” (priority 1980, dated 1981)
≈ marks a conversion by molar mass, not a printed value.

Key:
Green peach aphid (GPA) = test: Green peach aphid test, sprayed infested broccoli leaves, percent killed after 24 hours; type: in vivo; conditions: Myzus persicae, lethal concentration at which 50% of the pests are killed
Excerpt: (§1) A test solution containing 600 ppm of test compound is made by dissolving the test compound in a solvent (acetone:methanol, 1:1), adding surfactant and then water to give an acetone:methanol:water system of 10:10:80. A 1:1 mixture of an alkylarylpolyether-alcohol (commercially available under the trademark Triton X-155) and a modified phthalic glycerol alkyd resin (commercially available under the trademark Triton B-1956) can be utilized at the equivalent of one ounce per gallon of test solution as a surfactant.
(§2) For the mite test, infested bean (Phaseolus limeanus) leaf discs (1.25 inches in diameter) containing about 50 mites and for green peach aphid tests, infested broccoli (Brassica oleracea italica) leaves or portions thereof containing about 50 aphids are placed in a Petri dish lid on a moistened piece of cotton. The leaves are then sprayed with the test solution using a rotating turntable. They are held for 24 hours and then the percent killed is determined.

[1] = tested on: Two-spotted spider mite (TSM); test: Mite test, sprayed infested bean leaf discs, percent killed after 24 hours; type: in vivo; conditions: Tetranychus urticae, foliar, lethal concentration at which 50% of the pests are killed
Excerpt: Two-spotted spider mite
as §1, §2

Mexican bean beetle (BB) = test: Bean beetle test, sprayed bean leaves infested with third instar larvae, percent killed after 48 hours; type: in vivo; conditions: Epilachna varivestis, lethal concentration at which 50% of the pests are killed
Excerpt: Mexican bean beetle (BB)
as §1
(§3) For the bean beetle and armyworm test, detached bean leaves on pieces of moistened filter paper are sprayed as above for the mite test in similar dishes and allowed to dry. One such dish is infested with 10 third instar Mexican bean beetle larvae, while another is infested with 10 third instar southern armyworm larvae. The dishes are covered. After holding for 48 hours, the percent killed is obtained.

Southern armyworm (AW) = test: Armyworm test, sprayed bean leaves infested with third instar larvae, percent killed after 48 hours; type: in vivo; conditions: Spodoptera eridania, lethal concentration at which 50% of the pests are killed
Excerpt: as §1, §3

Boll weevil (BW) = test: Boll weevil test, sprayed jars with adult boll weevils, percent kill after 48 hours; type: in vivo; conditions: Anthonomus grandis, lethal concentration at which 50% of the pests are killed
Excerpt: as §1
For the boll weevil and house fly tests, half pint glass canning jars with a screened top are used. Food is supplied for the boll weevil (apple) and for the house fly (sugar water). The test insects consist of 10 adult boll weevils and 20 adult house flies. The jars containing the insects are sprayed using the turntable. The percent kill of boll weevil is determined 48 hours after the application. In the house fly test, a percent knockdown is determined one hour after application, the percent kill after 24 hours.

Corn rootworm ova = test: Southern corn rootworm ova test, sprayed filter paper, 6 days; type: in vivo, Diabrotica undecimpunctata howardi; conditions: 144 h, lethal concentration at which 50% of the pests are killed
Excerpt: (§4) Diabrotica undecimpunctata howardi
as §1
(§5) For tests involving the southern corn rootworm ova and larvae, two layers of 4.25 cm. filter papers are placed in small, Petri dishes, and sprayed on the turntable with a 600 ppm solution of the test compound and air dried. About 100 eggs in about one milliliter of water are pipetted onto the filter paper and the dishes covered. These are held for 6 days and examined under the microscope. The percent kill values for ova and larvae are determined.

Corn rootworm larva = test: Southern corn rootworm larvae test, sprayed filter paper, 6 days; type: in vivo, Diabrotica undecimpunctata howardi; conditions: 144 h, lethal concentration at which 50% of the pests are killed
Excerpt: as §4, §1, §5

Compound | LC50 (Green peach aphid (GPA)) [µg/mL] | LC50 [1] [µg/mL] | LC50 (Mexican bean beetle (BB)) [µg/mL] | LC50 (Southern armyworm (AW)) [µg/mL] | LC50 (Boll weevil (BW)) [µg/mL] | LC50 (Corn rootworm ova) [µg/mL] | LC50 (Corn rootworm larva) [µg/mL]
CCCSP(=O)(OCC)Oc1ccc(S(=O)(=O)Oc2ccc(C)cc2)cc1 (centres unmarked) [VIII, O-Ethyl-O-[4-(4'-methylphenoxysulfonyl)phenyl]S-n-propyl phosphorothiolate] | 7.5 (≈ 17.4 µM) | 20 (≈ 46.5 µM) | 150 (≈ 348 µM) | 75 (≈ 174 µM) | > 600 | 550 (≈ 1280 µM) | 33 (≈ 76.7 µM)
CCCSP(=S)(OCC)Oc1ccc(S(=O)(=O)Oc2ccccc2)cc1 (centres unmarked) [XIII, O-Ethyl O-[4-(phenoxysulfonyl)phenyl]S-n-propyl phosphorodithiolate] | 38 (≈ 87.9 µM) | 8 (≈ 18.5 µM) | 150 (≈ 347 µM) | 75 (≈ 173 µM) | 150 (≈ 347 µM) | > 600 | 10 (≈ 23.1 µM)
CCCCSP(=O)(OCC)Oc1ccc(S(=O)(=O)Oc2ccccc2)cc1 (centres unmarked) [X] | 8.6 (≈ 20 µM) | 5 (≈ 11.6 µM) | 27 (≈ 62.7 µM) | 41 (≈ 95.2 µM) | > 600 | > 600 | 75 (≈ 174 µM)
CCOP(=O)(Oc1ccc(S(=O)(=O)Oc2ccccc2)cc1)SCC(C)C (centres unmarked) [XI, O-Ethyl S-isobutyl O-[4-(phenoxysulfonyl)phenyl]phosphorothiolate] | 1.3 (≈ 3.02 µM) | 6.6 (≈ 15.3 µM) | 26 (≈ 60.4 µM) | 49 (≈ 114 µM) | 75 (≈ 174 µM) | > 600 | 142 (≈ 330 µM)
CCCSP(=O)(OCC)Oc1ccc(S(=O)(=O)Oc2ccccc2)cc1 (centres unmarked) [Example II, O-Ethyl O-[4-(phenoxysulfonyl)phenyl]S-n-propyl phosphorothiolate] | 7.5 (≈ 18 µM) | 9.8 (≈ 23.5 µM) | 75 (≈ 180 µM) | 32 (≈ 76.8 µM) | 345 (≈ 828 µM) | > 600 | 32 (≈ 76.8 µM)
CCCSP(=O)(OC)Oc1ccc(S(=O)(=O)Oc2ccc([N+](=O)[O-])cc2)cc1 (centres unmarked) [XII, O-Methyl O-[4-(4'-nitrophenoxysulfonyl)phenyl]S-n-propyl phosphorothiola] | 26 (≈ 58.1 µM) | 6.6 (≈ 14.8 µM) | 54 (≈ 121 µM) | 45 (≈ 101 µM) | 500 (≈ 1120 µM) | > 600 | 75 (≈ 168 µM)
CCCSP(=O)(OCC)Oc1ccc(S(=O)(=O)Oc2ccc([N+](=O)[O-])cc2)cc1 (centres unmarked) [III, O-Ethyl-O-[4-(4'-nitrophenoxysulfonyl)phenyl]S-n-propyl phosphorothiolate] | 6.2 (≈ 13.4 µM) | 5 (≈ 10.8 µM) | 75 (≈ 163 µM) | 45 (≈ 97.5 µM) | > 600 | > 600 | 75 (≈ 163 µM)
CCCSP(=O)(OCC)Oc1ccc(S(=O)(=O)Oc2ccc(C#N)cc2)cc1 (centres unmarked) [VI, O-[4-(4'-cyanophenoxysulfonyl)phenyl]O-ethyl S-n-propyl phoshorothiolate] | 18 (≈ 40.8 µM) | 6.8 (≈ 15.4 µM) | 49 (≈ 111 µM) | 41 (≈ 92.9 µM) | > 600 | > 600 | 38 (≈ 86.1 µM)
CCOP(=O)(Oc1ccc(S(=O)(=O)Oc2ccccc2)cc1)SC(C)CC (centres unmarked) [IX, S-sec-Butyl O-ethyl O-[4-(phenoxysulfonyl)phenyl]phosphorothiolate] | 2.8 (≈ 6.5 µM) | 5.8 (≈ 13.5 µM) | 15 (≈ 34.8 µM) | 45 (≈ 105 µM) | 75 (≈ 174 µM) | 230 (≈ 534 µM) | 8.4 (≈ 19.5 µM)
CCCSP(=O)(OCC)Oc1ccc(S(=O)(=O)Oc2ccc(SC)cc2)cc1 (centres unmarked) [VII, O-Ethyl-O-[4-(4'-methylthiophenoxysulfonyl)phenyl]S-n-propyl phosphorothiolate] | 6.4 (≈ 13.8 µM) | 2.4 (≈ 5.19 µM) | 162 (≈ 350 µM) | 27 (≈ 58.4 µM) | 550 (≈ 1190 µM) | > 600 | 130 (≈ 281 µM)
CCCSP(=O)(OCC)Oc1ccc(S(=O)(=O)Oc2ccc(Cl)cc2)cc1 (centres unmarked) [IV, O-[4-(4'-chlorophenoxysulfonyl)phenyl]O-ethyl S-n-propyl phosphorothiolate] | 2.5 (≈ 5.54 µM) | 2.9 (≈ 6.43 µM) | 75 (≈ 166 µM) | 75 (≈ 166 µM) | 138 (≈ 306 µM) | 142 (≈ 315 µM) | 4.1 (≈ 9.09 µM)
